Tests used:
[1] = tested on: TC32 Ewing sarcoma cell line; assay: 72 hour cytotoxicity, TC32; assay type: cell-based; conditions: Ewing sarcoma cell line TC32, 72 hour; read-out: IC50 (nM) TC 32
Experimental: (§1) The cytotoxicity of a subgroup of the MTM SA analogues was tested against various Ewing sarcoma cell lines and non-Ewing sarcoma cell lines over a 72 hour period. Each analogue was checked individually with a range of concentrations to determine the IC50 of the molecule in actively growing cell cultures.

[2] = tested on: TC71 Ewing sarcoma cell line; assay: 72 hour cytotoxicity, TC71; assay type: cell-based; conditions: Ewing sarcoma cell line TC71, 72 hour
Experimental: as §1

[3] = tested on: ES-8 Ewing sarcoma cell line; assay: 72 hour cytotoxicity, ES-8; assay type: cell-based; conditions: Ewing sarcoma cell line ES-8, 72 hour
Experimental: as §1

[4] = tested on: U118 non-Ewing sarcoma cell line; assay: 72 hour cytotoxicity, U118; assay type: cell-based; conditions: non-Ewing sarcoma cell line U118, 72 hour
Experimental: as §1

[5] = tested on: ES-4 Ewing sarcoma cell line; assay: 72 hour cytotoxicity, ES-4; assay type: cell-based; conditions: Ewing sarcoma cell line ES-4, 72 hour
Experimental: as §1

[6] = tested on: 5838 Ewing sarcoma cell line; assay: 72 hour cytotoxicity, 5838; assay type: cell-based; conditions: Ewing sarcoma cell line 5838, 72 hour
Experimental: as §1

[7] = tested on: ES-3 Ewing sarcoma cell line; assay: 72 hour cytotoxicity, ES-3; assay type: cell-based; conditions: Ewing sarcoma cell line ES-3, 72 hour
Experimental: as §1

[8] = tested on: ES-2 Ewing sarcoma cell line; assay: 72 hour cytotoxicity, ES-2; assay type: cell-based; conditions: Ewing sarcoma cell line ES-2, 72 hour
Experimental: as §1

[9] = tested on: SK-ES-1 Ewing sarcoma cell line; assay: 72 hour cytotoxicity, SK-ES-1; assay type: cell-based; conditions: Ewing sarcoma cell line SK-ES-1, 72 hour
Experimental: as §1

[10] = tested on: ES-7 Ewing sarcoma cell line; assay: 72 hour cytotoxicity, ES-7; assay type: cell-based; conditions: Ewing sarcoma cell line ES-7, 72 hour
Experimental: as §1

[11] = tested on: A549, human non-small cell lung cancer cells; assay: 72 hour cytotoxicity, A549 (resazurin); assay type: cell-based; conditions: non-Ewing sarcoma cell line A549, 72 hour
Experimental: The cytotoxic effects of the side chain modifications of SA were investigated in order to determine whether the modification were beneficial to the drug structure. All cytotoxicity assays were performed with A549, human non-small cell lung cancer cells. A549 cells were cultured as specified from ATCC at 37° C., 5% CO2. The cells were added to a 96 well plate (5,000 cells/well) and permitted to attach for 24 h. After 24 h culture media were replaced with the side chain modified MTM SA derivative containing media at differing concentrations. The cells were incubated with the drug containing media for 72 hrs total (n=8). Cell viability was determined using a resazurin assay that signifies mitochondrial metabolic activity in living cells. […] of a 1 mM resazurin solution in PBS was added to the control and analogue-treated cells at the end of the treatment period. Cell viability was determined three hours later by reading the fluorescence at 560 nm (Ex)/590 nm (Em). The fluorescence signals were quantified using a Spectramax M5 plate reader (Molecular Devices) equipped with a SoftMaxPro software. Cytotoxicity was determined by calculating the half maximal inhibitory concentration (IC50) of each sample.
as §1

[12] = tested on: several cancer cell lines; conditions: cited from earlier work
[13] = tested on: Ewing sarcoma (TC32, 5838, SKES1) and non-Ewing (A459 (lung) and PC3 (prostate)) cancer cell lines; assay: Selectivity assay, Ewing sarcoma versus non-Ewing cell panel (72 hr cytotoxicity)

| Compound | IC50 [1] | IC50 [2] | IC50 [3] | IC50 [4] | IC50 [5] | IC50 [6] | IC50 [7] | IC50 [8] | IC50 [9] | IC50 [10] | IC50 [11] | activity compared to the parent MTM [12] | selectivity against Ewing sarcoma cells relative to non-Ewing cells ([13]; FIG. 9, right panel) | less potent than MTM ([13]; against Ewing sarcoma cells, relative to MTM) | higher selectivity than MTM against Ewing sarcoma relative to non-Ewing cell lines ([13]; relative to MTM, 72 hr) |
| --- | --- | --- | --- | --- | --- | --- | --- | --- | --- | --- | --- | --- | --- | --- | --- |
| CO[C@H](C(=O)NCCc1c[nH]c2ccc(O)cc12)[C@@H]1Cc2cc3cc(OC4CC(OC5CC(O)C(O)C(C)O5)C(O)C(C)O4)c(C)c(O)c3c(O)c2C(=O)[C@H]1OC1CC(OC2CC(OC3CC(C)(O)C(O)C(C)O3)C(O)C(C)O2)C(O)C(C)O1 (stereo partly drawn) [MTMSA-Serotonin] | 667 nM | 671 nM | 676 nM | 916 nM | 610 nM | 690 nM | 658 nM | 749 nM | 612 nM | 753 nM | > 3000 nM | – | – | – | – |
| COc1ccc2[nH]cc(CCNC(=O)[C@@H](OC)[C@@H]3Cc4cc5cc(OC6CC(OC7CC(O)C(O)C(C)O7)C(O)C(C)O6)c(C)c(O)c5c(O)c4C(=O)[C@H]3OC3CC(OC4CC(OC5CC(C)(O)C(O)C(C)O5)C(O)C(C)O4)C(O)C(C)O3)c2c1 (stereo partly drawn) [MTMSA-5-OMe Trypamine] | 73 nM | 58 nM | 75 nM | 58 nM | 63 nM | 78 nM | 157 nM | 84 nM | 63 nM | 79 nM | 84 nM | – | – | – | – |
| COC(C(=O)O)[C@@H]1Cc2cc3cc(OC4CC(OC5CC(O)C(O)C(C)O5)C(O)C(C)O4)c(C)c(O)c3c(O)c2C(=O)[C@H]1OC1CC(OC2CC(OC3CC(C)(O)C(O)C(C)O3)C(O)C(C)O2)C(O)C(C)O1 (stereo partly drawn) [MTM SA, mithramycin side chain carboxylic acid] | – | – | – | – | – | – | – | – | – | – | – | significantly decreased activity | – | – | – |
| COC(=O)[C@@H](OC)[C@@H]1Cc2cc3cc(OC4CC(OC5CC(O)C(O)C(C)O5)C(O)C(C)O4)c(C)c(O)c3c(O)c2C(=O)[C@H]1OC1CC(OC2CC(OC3CC(C)(O)C(O)C(C)O3)C(O)C(C)O2)C(O)C(C)O1 (stereo partly drawn) [MTMSA-Me ester] | 67 nM | 46 nM | 47 nM | 38 nM | 41 nM | 193 nM | 90 nM | 76 nM | 86 nM | 51 nM | 99 nM | – | – | – | – |
| CO[C@H](C(=O)C(C)=O)[C@@H]1Cc2cc3cc(OC4C[C@@H](OC5C[C@@H](O)[C@H](O)C(C)O5)[C@H](O)C(C)O4)c(C)c(O)c3c(O)c2C(=O)[C@H]1OC1C[C@@H](OC2C[C@@H](OC3C[C@](C)(O)[C@H](O)C(C)O3)[C@@H](O)C(C)O2)[C@H](O)C(C)O1 (stereo partly drawn) [MTM SDK] | – | – | – | – | – | – | – | – | – | – | – | increased activity | – | – | – |
| COC(=O)[C@H](Cc1ccc(O)cc1)NC(=O)[C@@H](OC)[C@@H]1Cc2cc3cc(OC4CC(OC5CC(O)C(O)C(C)O5)C(O)C(C)O4)c(C)c(O)c3c(O)c2C(=O)[C@H]1OC1CC(OC2CC(OC3CC(C)(O)C(O)C(C)O3)C(O)C(C)O2)C(O)C(C)O1 (stereo partly drawn) [MTMSA-Tyr] | 133 nM | 130 nM | 171 nM | 231 nM | 138 nM | 170 nM | 266 nM | 263 nM | 306 nM | 189 nM | 867 nM | – | – | – | – |
| COC(=O)[C@H](C)NC(=O)[C@@H](OC)[C@@H]1Cc2cc3cc(OC4CC(OC5CC(O)C(O)C(C)O5)C(O)C(C)O4)c(C)c(O)c3c(O)c2C(=O)[C@H]1OC1CC(OC2CC(OC3CC(C)(O)C(O)C(C)O3)C(O)C(C)O2)C(O)C(C)O1 (stereo partly drawn) [MTM SA-Ala] | – | – | – | – | – | – | – | – | – | – | – | – | 9 fold | about 200 fold | 3 fold |
| CO[C@H](C(=O)NCCc1c[nH]c2ccccc12)[C@@H]1Cc2cc3cc(OC4CC(OC5CC(O)C(O)C(C)O5)C(O)C(C)O4)c(C)c(O)c3c(O)c2C(=O)[C@H]1OC1CC(OC2CC(OC3CC(C)(O)C(O)C(C)O3)C(O)C(C)O2)C(O)C(C)O1 (stereo partly drawn) [MTMSA-Tryptamine] | 110 nM | 78 nM | 97 nM | 76 nM | 90 nM | 439 nM | 216 nM | 155 nM | 226 nM | 86 nM | 196 nM | – | – | – | – |

— patent US9447135B2, “Semi-synthetic mithramycin derivatives with anti-cancer activity” (UNIVERSITY OF KENTUCKY RESEARCH FOUNDATION, priority 2012, dated 2016)
